From patent US20230123334A1, “AMINO LIPID COMPOUND, PREPARATION METHOD THEREFOR, AND APPLICATION THEREOF” (SHENZHEN SHENXIN BIOTECHNOLOGY CO., LTD., priority 2020, published 2023)

How the values were obtained:
HEK293 cells [1] = assay: Preliminary screening as DNA vectors, GFP transfection of HEK293 cells; assay type: cell-based; conditions: HEK293 cells; lipid/DOPE liposome with 75 ng plasmid DNA (psin-EGFP-IRES-Puro); number of cells expressing GFP divided by total number of nuclei (Hoechst)
How it was run: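 First, amino lipid and DOPE were vortexed in sodium acetate buffer (pH 5.6) to form liposomes. Next, these were held with 75 ng EGFP plasmid at room temperature for 30 min. Finally, HEK293 cells were added, cultured at 37° C., Hoechst-stained, and GFP+/total nuclei scored by imaging.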

HEK293 cells [2] = assay: Preliminary screening as mRNA vectors, EGFP mRNA transfection of HEK293 cells; assay type: cell-based; conditions: HEK293 cells, 96-well plates, EGFP mRNA 50 ng per well; percentage of GFP fluorescent cells relative to total number of cells (Hoechst)
How it was run: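 Screening format: EGFP mRNA transfection (50 ng/well) into HEK293 in 10% FBS-supplemented DMEM. Percent green fluorescent cells, normalised to Hoechst nuclear count, gave the value; Lipofectamine2000 was the reference transfectant.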

Structure (SMILES): CCCCCCCCCCCCCCCCNc1nc(NCCCCCCCCC)nc(NCCN2CCOCC2)n1 [Compound N9N16D2]
- Absolute DNA transfection efficiency in HEK293 cells (HEK293 cells [1]): 0.0%
- Absolute mRNA transfection efficiency in HEK293 cells (HEK293 cells [2]): 0.7%

Structure (SMILES): CCCCCCCCCCCCCCCCCCNc1nc(NCCCCCCCC)nc(NCCN2CCOCC2)n1 [Compound N8N18D2]
- Absolute DNA transfection efficiency in HEK293 cells (HEK293 cells [1]): 1.7%
- Absolute mRNA transfection efficiency in HEK293 cells (HEK293 cells [2]): 7.0%

Structure (SMILES): CCCCCCCCCCCCCCCCCCSc1nc(NCCN2CCN(C)CC2)nc(SCCCCCCCCCCCC)n1 [Compound S12S18D5]
- Absolute DNA transfection efficiency in HEK293 cells (HEK293 cells [1]): 0.7%
- Absolute mRNA transfection efficiency in HEK293 cells (HEK293 cells [2]): 0.0%

Structure (SMILES): CCCCCCCCCCCCCCCNc1nc(NCCCN2CCN(C)CC2)nc(N(CCCCCCCCCCCC)CCCCCCCCCCCC)n1 [N15^2N12D9]
- Absolute DNA transfection efficiency in HEK293 cells (HEK293 cells [1]): 1.7%
- Absolute mRNA transfection efficiency in HEK293 cells (HEK293 cells [2]): 0.0%

Structure (SMILES): CCCCCCCCCCCCCCCNc1nc(NCCCCCCCCCCCC)nc(NCCN2CCCC2)n1 [Compound N12N15D3]
- Absolute DNA transfection efficiency in HEK293 cells (HEK293 cells [1]): 1.1%
- Absolute mRNA transfection efficiency in HEK293 cells (HEK293 cells [2]): 6.5%

Structure (SMILES): CCCCCCCCCCCCCCCNc1nc(NCCCCCCCCCCCCCCC)nc(NCCN2CCCCC2)n1 [Compound N15N15D4]
- Absolute DNA transfection efficiency in HEK293 cells (HEK293 cells [1]): 1.3%
- Absolute mRNA transfection efficiency in HEK293 cells (HEK293 cells [2]): 0.8%

Structure (SMILES): CCCCCCCCCCCCN(CCCCCCCCCCCC)c1nc(NCCCCCCCCC)nc(NCC2CCN(C)CC2)n1 [N9^2N12D10]
- Absolute DNA transfection efficiency in HEK293 cells (HEK293 cells [1]): 0.0%
- Absolute mRNA transfection efficiency in HEK293 cells (HEK293 cells [2]): 2.9%

Structure (SMILES): CCCCCCCCNc1nc(NCCCCCCCC)nc(NCCCN2CCOCC2)n1 [Compound N8N8D8]
- Absolute DNA transfection efficiency in HEK293 cells (HEK293 cells [1]): 0.0%
- Absolute mRNA transfection efficiency in HEK293 cells (HEK293 cells [2]): 0.0%

Structure (SMILES): CCCCCCCCCNc1nc(NCCCCCCCCC)nc(NCC2CCN(C)CC2)n1 [Compound N9N9D10]
- Absolute DNA transfection efficiency in HEK293 cells (HEK293 cells [1]): 0.0%
- Absolute mRNA transfection efficiency in HEK293 cells (HEK293 cells [2]): 0.8%

Structure (SMILES): CCCCCCCCCCCCCCCSc1nc(NCCCN2CCOCC2)nc(SCCCCCCCCCCCCCC)n1 [Compound S14S15D8]
- Absolute DNA transfection efficiency in HEK293 cells (HEK293 cells [1]): 0.0%
- Absolute mRNA transfection efficiency in HEK293 cells (HEK293 cells [2]): 0.0%

Structure (SMILES): CCCCCCCCCSc1nc(NCCN2CCN(C)CC2)nc(SCCCCCCCCC)n1 [Compound S9S9D5]
- Absolute DNA transfection efficiency in HEK293 cells (HEK293 cells [1]): 12.5%
- Absolute mRNA transfection efficiency in HEK293 cells (HEK293 cells [2]): 37.1%

Structure (SMILES): CCCCCCCCCCCCCCCSc1nc(NCCN2CCCCC2)nc(SCCCCCCCCCCCC)n1 [Compound S12S15D4]
- Absolute DNA transfection efficiency in HEK293 cells (HEK293 cells [1]): 3.8%
- Absolute mRNA transfection efficiency in HEK293 cells (HEK293 cells [2]): 3.3%

Structure (SMILES): CCCCCCCCCCCCCCSc1nc(NCCN2CCCC2)nc(SCCCCCCCCCCCCCC)n1 [Compound S14S14D3]
- Absolute DNA transfection efficiency in HEK293 cells (HEK293 cells [1]): 0.2%
- Absolute mRNA transfection efficiency in HEK293 cells (HEK293 cells [2]): 0.1%

Structure (SMILES): CCCCCCCCCCCCCNc1nc(NCCCCCC)nc(NCCCN2CCN(C)CC2)n1 [Compound N6N13D9]
- Absolute DNA transfection efficiency in HEK293 cells (HEK293 cells [1]): 0.0%
- Absolute mRNA transfection efficiency in HEK293 cells (HEK293 cells [2]): 0.0%

Structure (SMILES): CCCCCCCCCCCCCCCNc1nc(NCCCCCCCCCCC)nc(NCCN2CCCC2)n1 [Compound N11N15D3]
- Absolute DNA transfection efficiency in HEK293 cells (HEK293 cells [1]): 0.3%
- Absolute mRNA transfection efficiency in HEK293 cells (HEK293 cells [2]): 2.7%

Structure (SMILES): CCCCCCCCCCCCCNc1nc(NCCCCCCCCC)nc(NCCN2CCN(C)CC2)n1 [Compound N9N13D5]
- Absolute DNA transfection efficiency in HEK293 cells (HEK293 cells [1]): 0.3%
- Absolute mRNA transfection efficiency in HEK293 cells (HEK293 cells [2]): 0.2%

Structure (SMILES): CCCCCCCCCCCCCCCCCCSc1nc(NCCN2CCOCC2)nc(SCCCCCCCCCC)n1 [Compound S10S18D2]
- Absolute DNA transfection efficiency in HEK293 cells (HEK293 cells [1]): 1.6%
- Absolute mRNA transfection efficiency in HEK293 cells (HEK293 cells [2]): 0.2%

Structure (SMILES): CCCCCCCCCCCCN(CCCCCCCCCCCC)c1nc(NCCCCCCCC)nc(NCCCN2CCN(C)CC2)n1 [N8^2N12D9]
- Absolute DNA transfection efficiency in HEK293 cells (HEK293 cells [1]): 0.2%
- Absolute mRNA transfection efficiency in HEK293 cells (HEK293 cells [2]): 0.4%

Structure (SMILES): CCCCCCCCCCCNc1nc(NCCCCCCCCC)nc(NCCCN(C)C)n1 [Compound N9N11D6]
- Absolute DNA transfection efficiency in HEK293 cells (HEK293 cells [1]): 0.0%
- Absolute mRNA transfection efficiency in HEK293 cells (HEK293 cells [2]): 0.5%

Structure (SMILES): CCCCCCCCCCCCCCCCCCNc1nc(NCCCCCCCCCCC)nc(NCCN2CCN(C)CC2)n1 [Compound N11N18D5]
- Absolute DNA transfection efficiency in HEK293 cells (HEK293 cells [1]): 1.4%
- Absolute mRNA transfection efficiency in HEK293 cells (HEK293 cells [2]): 0.0%

Structure (SMILES): CCCCCCCCCCSc1nc(NCCN(CC)CC)nc(SCCCCCCCCC)n1 [Compound S9S10D7]
- Absolute DNA transfection efficiency in HEK293 cells (HEK293 cells [1]): 8.3%
- Absolute mRNA transfection efficiency in HEK293 cells (HEK293 cells [2]): 2.8%

Structure (SMILES): CCCCCCCCCCCCCCCSc1nc(NCCN2CCCC2)nc(SCCCCCCCCCCC)n1 [Compound S11S15D3]
- Absolute DNA transfection efficiency in HEK293 cells (HEK293 cells [1]): 7.4%
- Absolute mRNA transfection efficiency in HEK293 cells (HEK293 cells [2]): 5.3%

Structure (SMILES): CCCCCCCCCCCCNc1nc(NCCCCCCCC)nc(NCCN(C)C)n1 [Compound N8N12D1]
- Absolute DNA transfection efficiency in HEK293 cells (HEK293 cells [1]): 0.6%
- Absolute mRNA transfection efficiency in HEK293 cells (HEK293 cells [2]): 0.5%

Structure (SMILES): CCCCCCCCCCCCCNc1nc(NCCCN(C)C)nc(N(CCCCCCCCCCCC)CCCCCCCCCCCC)n1 [N13^2N12D6]
- Absolute DNA transfection efficiency in HEK293 cells (HEK293 cells [1]): 1.3%
- Absolute mRNA transfection efficiency in HEK293 cells (HEK293 cells [2]): 3.9%

Structure (SMILES): CCCCCCCCCCCCCCCCCCNc1nc(NCCN(C)C)nc(N(CCCCCCCCCCCC)CCCCCCCCCCCC)n1 [N18^2N12D1]
- Absolute DNA transfection efficiency in HEK293 cells (HEK293 cells [1]): 1.0%
- Absolute mRNA transfection efficiency in HEK293 cells (HEK293 cells [2]): 0.4%

Structure (SMILES): CCCCCCCCCCCCCCCCCCNc1nc(NCCCCCCCCCCCCCCCCCC)nc(NCCN2CCCC2)n1 [Compound N18N18D3]
- Absolute DNA transfection efficiency in HEK293 cells (HEK293 cells [1]): 2.0%
- Absolute mRNA transfection efficiency in HEK293 cells (HEK293 cells [2]): 40.0%

Structure (SMILES): CCCCCCCCCCCCCCCNc1nc(NCCCCCCCCCCC)nc(NCCCN(C)C)n1 [Compound N11N15D6]
- Absolute DNA transfection efficiency in HEK293 cells (HEK293 cells [1]): 1.6%
- Absolute mRNA transfection efficiency in HEK293 cells (HEK293 cells [2]): 0.3%

Structure (SMILES): CCCCCCCCCNc1nc(NCCCCCC)nc(NCCN(CC)CC)n1 [Compound N6N9D7]
- Absolute DNA transfection efficiency in HEK293 cells (HEK293 cells [1]): 0.0%
- Absolute mRNA transfection efficiency in HEK293 cells (HEK293 cells [2]): 0.0%

Structure (SMILES): CCCCCCCCCCCCSc1nc(NCCCN2CCOCC2)nc(SCCCCCCCCCC)n1 [Compound S10S12D8]
- Absolute DNA transfection efficiency in HEK293 cells (HEK293 cells [1]): 20.9%
- Absolute mRNA transfection efficiency in HEK293 cells (HEK293 cells [2]): 5.4%

Structure (SMILES): CCCCCCCCCCCCCCCCCCSc1nc(NCCCN(C)C)nc(SCCCCCCCCC)n1 [Compound S9S18D6]
- Absolute DNA transfection efficiency in HEK293 cells (HEK293 cells [1]): 1.7%
- Absolute mRNA transfection efficiency in HEK293 cells (HEK293 cells [2]): 11.6%

Structure (SMILES): CCCCCCCCCCCCN(CCCCCCCCCCCC)c1nc(NCCCCCC)nc(NCCN(CC)CC)n1 [N6^2N12D7]
- Absolute DNA transfection efficiency in HEK293 cells (HEK293 cells [1]): 0.1%
- Absolute mRNA transfection efficiency in HEK293 cells (HEK293 cells [2]): 0.3%

Structure (SMILES): CCCCCCCCCCCCCNc1nc(NCCCCCCC)nc(NCCN2CCCCC2)n1 [Compound N7N13D4]
- Absolute DNA transfection efficiency in HEK293 cells (HEK293 cells [1]): 0.0%
- Absolute mRNA transfection efficiency in HEK293 cells (HEK293 cells [2]): 0.3%

Structure (SMILES): CCCCCCCCCCCCCCCSc1nc(NCCN(CC)CC)nc(SCCCCCCCCCCCCCCC)n1 [Compound S15S15D7]
- Absolute DNA transfection efficiency in HEK293 cells (HEK293 cells [1]): 0.6%
- Absolute mRNA transfection efficiency in HEK293 cells (HEK293 cells [2]): 0.5%

Structure (SMILES): CCCCCCCCCCCNc1nc(NCCCCCCCCCCC)nc(NCCCN2CCN(C)CC2)n1 [Compound N11N11D9]
- Absolute DNA transfection efficiency in HEK293 cells (HEK293 cells [1]): 0.0%
- Absolute mRNA transfection efficiency in HEK293 cells (HEK293 cells [2]): 0.3%

Structure (SMILES): CCCCCCCCCCCCCCSc1nc(NCCN2CCCC2)nc(SCCCCCCCCCC)n1 [Compound S10S14D3]
- Absolute DNA transfection efficiency in HEK293 cells (HEK293 cells [1]): 7.9%
- Absolute mRNA transfection efficiency in HEK293 cells (HEK293 cells [2]): 0.6%

Structure (SMILES): CCCCCCCCCCCCCCCCNc1nc(NCCCCCCCC)nc(NCCN2CCCC2)n1 [Compound N8N16D3]
- Absolute DNA transfection efficiency in HEK293 cells (HEK293 cells [1]): 8.5%
- Absolute mRNA transfection efficiency in HEK293 cells (HEK293 cells [2]): 13.8%
